According to ChEMBL document CHEMBL2150933 (J Med Chem, 2012):
The source made the active and inactive calls. The rule behind the calls is not given here.

Legend:
[1] = system: TK-10; assay: Cytotoxicity against human TK10 cells after 48 hrs by SRB assay; format: functional; details: TK-10, 48 h
[2] = system: SW-620; assay: Cytotoxicity against human SW620 cells after 48 hrs by SRB assay; format: functional; details: SW-620, 48 h
[3] = system: IGROV-1; assay: Cytotoxicity against human IGROV1 cells after 48 hrs by SRB assay; format: functional; details: IGROV-1, 48 h
[4] = system: Mus musculus; assay: Toxicity in athymic nu/nu Harlan mouse xenografted with human COLO205 cells assessed as change in body weight at 10 mg/kg, iv administered Q2D for 10 days relative to control; format: organism-based, COLO 205; design: dose 10 mg/kg, route intravenous; details: in vivo, 240 h
[5] = system: Mus musculus; assay: Toxicity in athymic nu/nu Harlan mouse xenografted with human SK-MEL-2 cells assessed as mortality at 10 mg/kg, iv administered Q2D for 10 days relative to control; format: organism-based; design: dose 10 mg/kg, route intravenous; details: in vivo, 240 h
[6] = system: Mus musculus; assay: Toxicity in athymic nu/nu Harlan mouse xenografted with human SK-MEL-2 cells assessed as change in body weight at 10 mg/kg, iv administered Q2D for 10 days relative to control; format: organism-based; design: dose 10 mg/kg, route intravenous; details: in vivo, 240 h
[7] = system: ACHN; assay: Cytotoxicity against human ACHN cells after 48 hrs by SRB assay; format: functional
[8] = system: SF-268; assay: Cytotoxicity against human SF268 cells after 48 hrs by SRB assay; format: functional; details: SF-268, 48 h
[9] = system: U-251; assay: Cytotoxicity against human U251 cells after 48 hrs by SRB assay; format: functional; details: U-251, 48 h, read-out: pGI50 (converted)
[10] = system: RPMI-8226; assay: Cytotoxicity against human RPMI8226 cells after 48 hrs by SRB assay; format: functional; details: RPMI-8226, 48 h
[11] = system: HL-60; assay: Cytotoxicity against human HL60 cells after 48 hrs by SRB assay; format: functional; details: HL-60, 48 h
[12] = system: A549; assay: Cytotoxicity against human A549 cells after 48 hrs by SRB assay; format: functional; details: A549, 48 h, read-out: pGI50 (converted)
[13] = system: LOX IMVI; assay: Cytotoxicity against human LOXIMVI cells after 48 hrs by SRB assay; format: functional
[14] = system: OVCAR-5; assay: Cytotoxicity against human OVCAR5 cells after 48 hrs by SRB assay; format: functional; details: OVCAR-5, 48 h
[15] = system: CCRF-CEM; assay: Cytotoxicity against human CCRF-CEM cells after 48 hrs by SRB assay; format: functional
[16] = system: Mus musculus; assay: Toxicity in athymic nu/nu Harlan mouse xenografted with human COLO205 cells assessed as mortality at 20 mg/kg, iv administered Q3D for 10 days relative to control; format: organism-based, COLO 205; design: dose 20 mg/kg, route intravenous; details: in vivo, 240 h
[17] = Plasma concentration in CD1 mouse at 18 mg/kg, iv administered as single dose measured after 120 mins; format: ADME, organism-based; design: dose 18 mg/kg, route intravenous
[18] = system: SK-OV-3; assay: Cytotoxicity against human SKOV3 cells after 48 hrs by SRB assay; format: functional; details: SK-OV-3, 48 h
[19] = system: T47D; assay: Cytotoxicity against human T47D cells after 48 hrs by SRB assay; format: functional
[20] = system: Mus musculus; assay: Toxicity in iv dosed CD1 mouse administered Q3D for 8 days; format: organism-based; details: in vivo, 192 h
[21] = system: Mus musculus; assay: Toxicity in athymic nu/nu Harlan mouse xenografted with human COLO205 cells assessed as change in body weight at 20 mg/kg, iv administered Q3D for 10 days relative to control; format: organism-based, COLO 205; design: dose 20 mg/kg, route intravenous; details: in vivo, 240 h
[22] = Toxicity in ip dosed CD1 mouse administered as single dose; format: organism-based; details: in vivo
[23] = Plasma concentration in CD1 mouse at 18 mg/kg, iv administered as single dose measured after 30 mins; format: ADME, organism-based; design: dose 18 mg/kg, route intravenous
[24] = system: BT-549; assay: Cytotoxicity against human BT549 cells after 48 hrs by SRB assay; format: functional; details: BT-549, 48 h
[25] = Cytotoxicity against human 786-O cells after 48 hrs by SRB assay; format: functional; details: 786-0, 48 h
[26] = system: Hs-578T; assay: Cytotoxicity against human Hs578T cells after 48 hrs by SRB assay; format: functional
[27] = Toxicity in iv dosed CD1 mouse administered as single dose; format: organism-based; details: in vivo
[28] = system: COLO 205; assay: Antitumor activity against human COLO205 cells xenografted in athymic nu/nu Harlan mouse assessed as tumor growth inhibition at 20 mg/kg, iv administered Q3D for 10 days relative to control; format: functional, organism-based; design: dose 20 mg/kg
[29] = system: Mus musculus; assay: Toxicity in athymic nu/nu Harlan mouse xenografted with human SK-MEL-2 cells assessed as adverse reactions at 20 mg/kg, iv administered Q3D for 10 days relative to control; format: organism-based; design: dose 20 mg/kg, route intravenous; details: in vivo, 240 h
[30] = system: DU-145; assay: Cytotoxicity against human DU145 cells after 48 hrs by SRB assay; format: functional; details: DU-145, 48 h
[31] = system: OVCAR-8; assay: Cytotoxicity against human OVCAR8 cells after 48 hrs by SRB assay; format: functional; details: OVCAR-8, 48 h, read-out: pGI50 (converted)
[32] = system: HCT-116; assay: Cytotoxicity against human HCT116 cells after 48 hrs by SRB assay; format: functional; details: HCT-116, 48 h
[33] = system: NCI-H522; assay: Cytotoxicity against human NCI-H522 cells after 48 hrs by SRB assay; format: functional; details: NCI-H522, 48 h
[34] = system: MDA-MB-231; assay: Cytotoxicity against human MDA-MB-231 cells after 48 hrs by SRB assay; format: functional; details: MDA-MB-231, 48 h
[35] = system: NCI-H460; assay: Cytotoxicity against human NCI-H460 cells after 48 hrs by SRB assay; format: functional; details: NCI-H460, 48 h
[36] = system: SK-MEL-2; assay: Cytotoxicity against human SK-MEL-2 cells after 48 hrs by SRB assay; format: functional; details: SK-MEL-2, 48 h
[37] = system: A549; assay: Cytotoxicity against human A549 cells after 72 hrs by MTT assay; format: functional; details: A549, 72 h
[38] = system: UO-31; assay: Cytotoxicity against human UO31 cells after 48 hrs by SRB assay; format: functional; details: UO-31, 48 h
[39] = system: MDA-MB-435; assay: Cytotoxicity against human MDA-MB-435 cells after 48 hrs by SRB assay; format: functional; details: MDA-MB-435, 48 h
[40] = system: OVCAR-3; assay: Cytotoxicity against human OVCAR3 cells after 48 hrs by SRB assay; format: functional; details: OVCAR-3, 48 h
[41] = system: KM12; assay: Cytotoxicity against human KM12 cells after 48 hrs by SRB assay; format: functional; details: KM12, 48 h
[42] = system: NCI-H23; assay: Cytotoxicity against human NCI-H23 cells after 48 hrs by SRB assay; format: functional; details: NCI-H23, 48 h
[43] = system: UACC-257; assay: Cytotoxicity against human UACC257 cells after 48 hrs by SRB assay; format: functional; details: UACC-257, 48 h
[44] = system: Malme-3M; assay: Cytotoxicity against human MALME-3M cells after 48 hrs by SRB assay; format: functional
[45] = system: UACC-62; assay: Cytotoxicity against human UACC62 cells after 48 hrs by SRB assay; format: functional; details: UACC-62, 48 h
[46] = system: PC-3; assay: Cytotoxicity against human PC3 cells after 48 hrs by SRB assay; format: functional; details: PC-3, 48 h
[47] = system: SN12C; assay: Cytotoxicity against human SN12C cells after 48 hrs by SRB assay; format: functional
[48] = system: HOP-92; assay: Cytotoxicity against human HOP92 cells after 48 hrs by SRB assay; format: functional; details: HOP-92, 48 h

## CO[C@@H]([C@@H]1Cc2cc3cc(O[C@H]4C[C@@H](O[C@H]5C[C@@H](O)[C@H](O)[C@@H](C)O5)[C@H](O)[C@@H](C)O4)c(C)c(O)c3c(O)c2C(=O)[C@H]1O[C@H]1C[C@@H](O[C@H]2C[C@@H](O[C@H]3C[C@H](O)[C@H](O)[C@@H](C)O3)[C@H](O)[C@@H](C)O2)[C@H](O)[C@@H](C)O1)[C@@H](O)C(C)=O
[1]
  GI50: 52.5 nM
[2]
  GI50: 22.4 nM
[3]; read-out: GI50
  GI50: 10 nM
[3]; read-out: pGI50 (converted)
  GI50: 10.5 nM
[4]
  Activity: Non-toxic
[5]
  Activity: Non-toxic
[6]
  Activity: Non-toxic
[7]
  GI50: 34.7 nM
[8]
  GI50: 22.4 nM
[9]
  GI50: 18.6 nM
[10]
  GI50: 16.2 nM
[11]
  GI50: 24 nM
[12]
  GI50: 20.4 nM
[13]
  GI50: 16.6 nM
[14]
  GI50: 39.8 nM
[15]
  GI50: 24.6 nM
[16]
  Activity: Non-toxic
[17]
  concentration at 2 h: < 100 nM
[18]
  GI50: 26.3 nM
[19]
  GI50: 25.7 nM
[20]
  MTD: 24 mg/kg
[21]
  Activity: Non-toxic
[22]
  MTD: 200 mg/kg
[23]
  concentration at 0.5 h: 1700 nM
[24]
  GI50: 18.2 nM
[25]
  GI50: 32.4 nM
[26]
  GI50: 16.2 nM
[27]
  MTD: 64 mg/kg
[28]
  TGI: Active
[29]
  Activity: Non-toxic
[30]
  GI50: 20.4 nM
[31]
  GI50: 35.5 nM
[32]
  GI50: 16.6 nM
[33]
  GI50: 17.8 nM
[34]; read-out: GI50
  GI50: 50 nM
[34]; read-out: pGI50 (converted)
  GI50: 47.9 nM
[35]
  GI50: 17.8 nM
[36]
  GI50: 27.5 nM
[37]
  GI50: 300 nM
[38]
  GI50: 69.2 nM
[39]
  GI50: 23.4 nM
[40]
  GI50: 19.5 nM
[41]
  GI50: 17.8 nM
[42]
  GI50: 22.4 nM
[43]
  GI50: 41.7 nM
[44]
  GI50: 19.5 nM
[45]
  GI50: 12 nM
[46]
  GI50: 21.4 nM
[47]
  GI50: 20.9 nM
[48]
  GI50: 26.9 nM
